Test results taken from patent publication US8586588B2, “Aryl pyridazinone derivatives and their use as H3 receptor ligands” (Cephalon, Inc., priority 2006, dated 2013).
Where a name gives a salt, the structure may show the parent alone.

Q: Which melting point does the source give for CC1CC(=O)N(c2ccccn2)N=C1c1ccc(OC2CCN(C3CCC3)CC2)cc1 (stereo not drawn) (as salt: HCl) [Example 193, 6-[4-(1-Cyclobutyl-piperidin-4-yloxy)-phenyl]-5-methyl-2-pyridin-2-yl-4,5-dihydro-2H-pyridazin-3-one] here?
A: The melting point was 143 to 145 °C.

Q: With Cn1nc(-c2ccc(OCCCN3CCCC3)cc2)c2ccccc2c1=O (as salt: HCl) [Example 52, 2-Methyl-4-[4-(3-pyrrolidin-1-yl-propoxy)-phenyl]-2H-phthalazin-1-one] as the compound, how does the melting point read?
A: Its melting point is 201 to 203 °C.

Q: For Cc1nn(-c2ccsc2)c(=O)cc1-c1ccc(OCCCN2CCC[C@H]2C)cc1 (as salt: HCl) [Example 108, 6-Methyl-5-{4-[3-((R)-2-methyl-pyrrolidin-1-yl)-propoxy]-phenyl}-2-thiophen-3-yl-2H-pyridazin-3-one], which melting point is on record?
A: Its melting point is 212 to 213 °C.

Q: With Cn1nc(-c2ccc(OCCCN3CCC[C@@H]3CO)cc2)ccc1=O (as salt: HCl) [Example 15, 6-{4-[3-((R)-2-Hydroxymethyl-pyrrolidin-1-yl)-propoxy]-phenyl}-2-methyl-2H-pyridazin-3-one] as the compound, how does the melting point read?
A: The melting point was 166 to 167 °C.

Q: With Cc1cc(OCCCN2CCC[C@H]2C)ccc1-c1cn[nH]c(=O)c1 (as salt: HCl) [Example 231, 5-{2-methyl-4-[3-((R)-2-methyl-pyrrolidin-1-yl)-propoxyl]-phenyl}-2H-pyridazin-3-one] as the compound, how does the melting point read?
A: Its melting point is 186 to 188 °C.

Q: For Cn1ncc(-c2ccc(OCCCN3CCCCC3)cc2)cc1=O (as salt: hydrochloride) [Example 92, 2-Methyl-5-[4-(3-piperidin-1-yl-propoxy)-phenyl]-2H-pyridazin-3-one], which melting point is on record?
A: Its melting point is 253 to 254 °C.

Q: Which melting point does the source give for Cn1nc(-c2ccc(OCCCN3CCCCC3)cc2)cc(Cc2ccccc2)c1=O (as salt: HCl) [Example 46, 4-Benzyl-2-methyl-6-[4-(3-piperidin-1-yl-propoxy)-phenyl]-2H-pyridazin-3-one] here?
A: The melting point was 186 to 187 °C.

Q: For CN1N=C(c2ccc(OC3CCN(C4CCCC4)CC3)cc2)C2CC2C1=O (stereo not drawn) (as salt: HCl) [Example 260, 5-[4-(1-Cyclopentyl-piperidin-4-yloxy)-phenyl]-3-methyl-3,4-diaza-bicyclo[4.1.0]hept-4-en-2-one], which melting point is on record?
A: Its melting point is 264 to 266 °C.

Q: For CCCn1nc(-c2ccc(OCCCN3CCC[C@H]3CN3CCCC3)cc2)c2sccc2c1=O (as salt: HCl) [Example 36, 5-Propyl-7-{4-[3-((S)-2-pyrrolidin-1-ylmethyl-pyrrolidin-1-yl)-propoxy]-phenyl}-5H-thieno[2,3-d]pyridazin-4-one], which melting point is on record?
A: The melting point was 123 °C (dec.).

Q: Which melting point does the source give for O=c1cc(-c2ccc(OCCCN3CCCCC3)cc2)cnn1-c1ccccn1 (as salt: HCl) [Example 95, 5-[4-(3-Piperidin-1-yl-propoxy)-phenyl]-2-pyridin-2-yl-2H-pyridazin-3-one] here?
A: Its melting point is 266 to 268 °C.

Q: With Cn1nc(-c2cccc(OCCCN3CCCCC3)c2)c2c(c1=O)CCC2 (as salt: HCl) [Example 126, 2-Methyl-4-[3-(3-piperidin-1-yl-propoxy)-phenyl]-2,5,6,7-tetrahydro-cyclopenta[d]pyridazin-1-one] as the compound, how does the melting point read?
A: The melting point was 189 to 190 °C.

Q: For Cc1cccnc1-n1ncc(-c2ccc(OCCCN3CCC[C@H]3C)cc2)cc1=O (as salt: hydrochloride) [Example 99, 2-(3-Methyl-pyridin-2-yl)-5-{4-[3-((R)-2-methylpyrrolidin-1-yl)-propoxy]-phenyl}-2H-pyridazin-3-one], which melting point is on record?
A: Its melting point is 98 to 100 °C.

Q: Which melting point does the source give for C[C@@H]1CCCN1CCCOc1ccc(-c2ccc(=O)n(Cc3ccccc3)n2)cc1 (as salt: HCl) [Example 18, 2-Benzyl-6-{4-[3-((R)-2-methyl-pyrrolidin-1-yl)-propoxy]-phenyl}-2H-pyridazin-3-one] here?
A: The melting point was 228 to 230 °C.

Q: Which melting point does the source give for CC(C)n1ncc(-c2ccc(OCCCN3CCC[C@H]3C)cc2)cc1=O (as salt: HCl) [Example 128, 2-Isopropyl-5-{4-[3-((R)-2-methyl-pyrrolidin-1-yl)-propoxy]-phenyl}-2H-pyridazin-3-one] here?
A: Its melting point is 251 to 253 °C.

Q: For COCn1ncc(-c2ccc(OCCCN3CCC[C@H]3C)cc2C)cc1=O (as salt: HCl) [Example 230, 2-Methoxymethyl-5-{2-methyl-4-[3-((R)-2-methyl-pyrrolidin-1-yl)-propoxyl]-phenyl}-2H-pyridazin-3-one], which melting point is on record?
A: The melting point was 139 to 140.5 °C.

Q: For O=C1C2CC2C(c2ccc(OC3CCN(C4CCC4)CC3)cc2)=NN1CC(F)(F)F (stereo not drawn) (as salt: HCl) [Example 254, 5-[4-(1-Cyclobutyl-piperidin-4-yloxy)-phenyl]-3-(2,2,2-trifluoro-ethyl)-3,4-diaza-bicyclo[4.1.0]hept-4-en-2-one], which melting point is on record?
A: The melting point was 110 to 121 °C.

Q: With C[C@@H]1CCCN1CCCOc1ccc(-c2n[nH]c(=O)c3c2CCC3)cc1 (as salt: HCl) [Example 12, 4-{4-[3-((R)-2-Methyl-pyrrolidin-1-yl)-propoxy]-phenyl}-2,5,6,7-tetrahydro-cyclopenta[d]pyridazin-1-one] as the compound, how does the melting point read?
A: Its melting point is 147 °C.

Q: For C[C@@H]1CCCN1CCCOc1ccc(-c2ccc(=O)[nH]n2)cc1F (as salt: HCl) [Example 119, 6-{3-Fluoro-4-[3-((R)-2-methyl-pyrrolidin-1-yl)-propoxy]-phenyl}-2H-pyridazin-3-one], which melting point is on record?
A: Its melting point is 252 to 253 °C.

Q: Which melting point does the source give for Cc1cc(-c2ccc(OCCCN3CCCCC3)cc2)nn(C(C)C)c1=O (as salt: HCl) [Example 42, 2-Isopropyl-4-methyl-6-[4-(3-piperidin-1-yl-propoxy)-phenyl]-2H-pyridazin-3-one] here?
A: The melting point was 197 to 198 °C.

Q: Which melting point does the source give for C[C@@H]1CCCN1CCCOc1ccc(-c2ccc(=O)n(C)n2)cc1F (as salt: HCl) [Example 7, 6-{3-Fluoro-4-[3-((R)-2-methyl-pyrrolidin-1-yl)-propoxy]-phenyl}-2-methyl-2H-pyridazin-3-one] here?
A: The melting point was 140 to 142 °C.

Q: With O=C1CCC(c2ccc(OC3CCN(C4CCC4)CC3)cc2F)=NN1 (as salt: HCl) [Example 219, 6-[4-(1-Cyclobutyl-piperidin-4-yloxy)-2-fluoro-phenyl]-4,5-dihydro-2H-pyridazin-3-one] as the compound, how does the melting point read?
A: The melting point was > 300 °C.

Q: With CC1CC(=O)NN=C1c1ccc(OCCCN2CCC[C@H]2C)cc1 (mixture of isomers) (as salt: HCl) [Example 194, 5-Methyl-6-{4-[3-((R)-2-methyl-pyrrolidin-1-yl)-propoxy]-phenyl}-4,5-dihydro-2H-pyridazin-3-one] as the compound, how does the melting point read?
A: The melting point was 169 to 171 °C.

Q: For C[C@@H]1CCCN1CCCOc1ccc(-n2nc(C3CC3)ccc2=O)cc1 (as salt: fumarate) [Example 262, 6-Cyclopropyl-2-{4-[3-((R)-2-methyl-pyrrolidin-1-yl)-propoxy]-phenyl}-2H-pyridazin-3-one], which melting point is on record?
A: The melting point was 51 to 55 °C.

Q: With Cc1cc(-c2ccc(OCCCN3CCC[C@H]3C)cc2)nn(Cc2ccccc2)c1=O (as salt: HCl) [Example 43, 2-Benzyl-4-methyl-6-{4-[3-((R)-2-methyl-pyrrolidin-1-yl)-propoxy]-phenyl}-2H-pyridazin-3-one] as the compound, how does the melting point read?
A: The melting point was 190 to 192 °C.

Q: With O=C1NN=C(c2ccc(OC3CCN(C4CCCC4)CC3)cc2)C2CC12 (stereo not drawn) (as salt: HCl) [Example 261, 5-[4-(1-Cyclopentyl-piperidin-4-yloxy)-phenyl]-3,4-diaza-bicyclo[4.1.0]hept-4-en-2-one] as the compound, how does the melting point read?
A: Its melting point is 288 to 290 °C.

Q: Which melting point does the source give for CC(C)n1nc(-c2ccc(OCCCN3CCCCC3)cc2)ccc1=O (as salt: HCl) [Example 3, 2-Isopropy1-6-[4-(3-piperidin-1-yl-propoxy)-pheny1]-2H-pyridazin-3-one] here?
A: The melting point was 118 to 122 °C.

Q: Which melting point does the source give for Cn1nc(-c2ccc(OCC3CCN(CC4CC4)CC3)cc2)ccc1=O (as salt: HCl) [Example 69, 6-[4-(1-Cyclopropylmethyl-piperidin-4-ylmethoxy)-phenyl]-2-methyl-2H-pyridazin-3-one] here?
A: The melting point was 230 to 231 °C.

Q: Which melting point does the source give for C[C@H](COc1ccc(-c2ccc(=O)n(C)n2)cc1)CN1CCC[C@H]1C (as salt: HCl) [Example 13, 2-Methyl-6-{4-[(S)-2-methyl-3-((R)-2-methyl-pyrrolidin-1-yl)-propoxy]-phenyl}-2H-pyridazin-3-one] here?
A: The melting point was 188 to 190 °C.

Q: With O=c1cc(-c2ccc(OCCCN3CCCCCC3)cc2)cnn1-c1ccccn1 (as salt: HCl) [Example 96, 5-[4-(3-Azepan-1-yl-propoxy)-phenyl]-2-pyridin-2-yl-2H-pyridazin-3-one] as the compound, how does the melting point read?
A: Its melting point is 230 to 232 °C.

Q: For O=C1CCC(c2ccc(OC3CCN(C4CCC4)CC3)cc2)=NN1c1ccccn1 (as salt: HCl) [Example 158, 6-[4-(1-Cyclobutyl-piperidin-4-yloxy)phenyl]-2-pyridin-2-yl-4,5-dihydro-2H-pyridazin-3-one], which melting point is on record?
A: The melting point was 263 to 265 °C.

Q: Which melting point does the source give for Cc1cccnc1-n1nc(C)c(-c2ccc(OCCCN3CCC[C@H]3C)cc2)cc1=O (as salt: hydrochloride) [Example 101, 6-Methyl-2-(3-methyl-pyridin-2-yl)-5-{4-[3-((R)-2-methyl-pyrrolidin-1-yl)-propoxy]-phenyl}-2H-pyridazin-3-one] here?
A: The melting point was 106 °C (dec.).

Q: With CC(C)n1nc(-c2ccc(OCCCN3[C@H](C)CC[C@H]3C)cc2)c2sccc2c1=O (as salt: HCl) [Example 31, 7-{4-[3-((2R,5R)-2,5-Dimethyl-pyrrolidin-1-yl)-propoxy]-phenyl}-5-isopropyl-5H-thieno[2,3-d]pyridazin-4-one] as the compound, how does the melting point read?
A: Its melting point is 106 °C (dec.).

Q: Which melting point does the source give for C[C@@H]1CCCN1CCCOc1ccc(-c2nn(C)c(=O)c3c2CCCC3)cc1 (as salt: HCl) [Example 60, 2-Methyl-4-{4-[3-((R)-2-methyl-pyrrolidin-1-yl)-propoxy]-phenyl}-5,6,7,8-tetrahydro-2H-phthalazin-1-one] here?
A: The melting point was 156 to 158 °C.

Q: With C[C@@H]1CCCN1CCCOc1ccc(C2=NN(c3ccccc3)C(=O)CC2)cc1 (as salt: HCl) [Example 19] as the compound, how does the melting point read?
A: The melting point was 213 to 215 °C.

Q: For CCCn1nc(-c2ccc(OCCCN3CCC(C)CC3)cc2)c2sccc2c1=O (as salt: HCl) [Example 34, 7-{4-[3-(4-Methyl-piperidin-1-yl)-propoxy]-phenyl}-5-propyl-5H-thieno[2,3-d]pyridazin-4-one], which melting point is on record?
A: The melting point was 168 to 170 °C.

Q: For C[C@@H]1CCCN1CCCOc1ccc(C2=NN(Cc3ccccc3)C(=O)CC2)cc1 (as salt: HCl) [Example 17, 2-Benzyl-6-{4-[3-((R)-2-methyl-pyrrolidin-1-yl)-propoxy]-phenyl}-4,5-dihydro-2H-pyridazin-3-one], which melting point is on record?
A: The melting point was 56 to 58 °C.
